# pIC50: −log10 of the molar value.
# Target: T1, PTPase from thermus thermophilus HB27 (Thermus thermophilus, UniProt Q72JF6)
# T1 construct: gene TT_C0816; recombinant, cloned into pET-28a(+), E. coli BL21(DE3), purified; LMW PTPase EC 3.1.3.48; P-loop CLGNICRS, residues Cys11, Cys16, Arg17, Asp123 (Tt1001)
# T1 sequence (Q72JF6 1-161): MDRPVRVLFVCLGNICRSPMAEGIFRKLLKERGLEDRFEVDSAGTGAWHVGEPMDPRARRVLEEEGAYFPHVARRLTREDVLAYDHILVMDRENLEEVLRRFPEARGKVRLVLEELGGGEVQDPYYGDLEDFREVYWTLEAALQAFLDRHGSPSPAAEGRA
# Experiment: residual pNPP phosphatase activity, absorbance […] nm
# Type: biochemical
smiles,measurement,value
CCCCCCCCCCCCOS(=O)(=O)O [SDS],pIC50,4.95

# Source: paper PMC7035334, “Effects of SDS on the activity and conformation of protein tyrosine phosphatase from thermus thermophilus HB27” (Scientific Reports, 2020)
